Experimental data reported in patent publication US20250101038A1, “COMPOUNDS” (priority 2021, published 2025).
Like-named read-outs stand apart in the source and are kept apart here.

Assays:
[1] = target: T1, 5-HT2C receptor (Homo sapiens, UniProt P28335); experiment: cell-based
T1 construct: host or cells: HEK293
T1 sequence (P28335 33-458): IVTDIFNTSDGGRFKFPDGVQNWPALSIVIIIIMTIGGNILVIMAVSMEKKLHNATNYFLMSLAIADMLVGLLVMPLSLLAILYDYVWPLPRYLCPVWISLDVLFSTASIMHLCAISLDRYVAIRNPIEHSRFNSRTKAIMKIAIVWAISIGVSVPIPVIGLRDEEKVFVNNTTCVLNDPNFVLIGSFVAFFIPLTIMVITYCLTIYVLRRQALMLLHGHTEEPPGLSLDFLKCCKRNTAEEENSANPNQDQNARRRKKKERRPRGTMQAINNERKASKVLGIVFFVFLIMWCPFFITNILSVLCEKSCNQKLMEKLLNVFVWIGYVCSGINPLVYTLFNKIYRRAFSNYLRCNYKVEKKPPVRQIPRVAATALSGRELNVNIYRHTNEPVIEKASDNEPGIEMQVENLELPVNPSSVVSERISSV

[2] = target: T2, 5-HT2B receptor (Homo sapiens, UniProt P41595); experiment: cell-based
T2 construct: host or cells: CHO-K1

[3] = target: T3, 5-HT2A receptor (Homo sapiens, UniProt P28223); experiment: FLIPR Ca2+ flux functional assay, 5-HT2A; type: cell-based
T3 construct: host or cells: HEK293
Protocol: Activity at 5-HT2A, 5-HT2B and 5-HT2C receptors was determined using a FLIPR Ca^2+ flux assay at WuXi AppTec Co. Ltd. (Hong Kong) Discovery Biology Unit according to their standard protocols. Briefly, stably transfected cells expressing the receptor of interest (HEK293 for 5-HT2A and 5-HT2C; CHO-K1 for 5-HT2B) were grown and plated in a 384 well plate and incubated at 37° C. and 5% CO2 overnight. A 250 mM stock solution of probenecid in FLIPR calcium assay buffer (10 mL) was freshly prepared and combined with a fluorescent dye (Fluo-4 Direct) to give a final assay concentration of 2.5 mM. Reference compounds were 4-fold serially diluted and the screening compounds were 3-fold serially diluted in 100% DMSO for 10 points using Agilent Bravo, and 750 nL was added to a 384 well compound plate using Echo along with 30 μL assay buffer. The fluorescent dye was then added to the assay plate along with assay buffer to a final volume of […]. The cell plate was incubated for 50 min at 37° C. and 5% CO2 and placed into the FLIPR Tetra along with the compound plate. 10 μL of references and compounds were then transferred from the compound plate into the cell plate and the fluorescent signal was read.

[4] = agonist activity, Ca2+ flux, HEK293 cells
[5] = agonist activity, Ca2+ flux, HEK293 cells, read-out: 5-HT2C EC50
[6] = agonist activity, Ca2+ flux, CHO-K1 cells
[7] = agonist activity, Ca2+ flux, CHO-K1 cells, read-out: 5-HT2B EC50
[8] = agonist activity, Ca2+ flux, HEK293 cells, read-out: 5-HT2A EC50

T2 sequence (P41595 whole entry): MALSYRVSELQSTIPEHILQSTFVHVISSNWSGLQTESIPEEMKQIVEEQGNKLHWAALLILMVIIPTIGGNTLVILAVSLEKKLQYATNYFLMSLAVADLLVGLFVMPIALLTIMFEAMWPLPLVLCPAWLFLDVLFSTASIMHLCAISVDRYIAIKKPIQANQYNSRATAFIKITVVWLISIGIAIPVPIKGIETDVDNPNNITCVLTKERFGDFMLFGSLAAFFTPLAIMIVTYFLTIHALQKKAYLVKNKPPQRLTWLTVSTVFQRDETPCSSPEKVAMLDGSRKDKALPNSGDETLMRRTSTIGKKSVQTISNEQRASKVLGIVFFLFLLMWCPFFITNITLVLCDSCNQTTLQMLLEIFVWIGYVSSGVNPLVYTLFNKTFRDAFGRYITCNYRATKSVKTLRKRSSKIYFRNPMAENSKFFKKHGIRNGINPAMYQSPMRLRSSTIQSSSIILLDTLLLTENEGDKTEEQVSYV
T3 sequence (P28223 whole entry): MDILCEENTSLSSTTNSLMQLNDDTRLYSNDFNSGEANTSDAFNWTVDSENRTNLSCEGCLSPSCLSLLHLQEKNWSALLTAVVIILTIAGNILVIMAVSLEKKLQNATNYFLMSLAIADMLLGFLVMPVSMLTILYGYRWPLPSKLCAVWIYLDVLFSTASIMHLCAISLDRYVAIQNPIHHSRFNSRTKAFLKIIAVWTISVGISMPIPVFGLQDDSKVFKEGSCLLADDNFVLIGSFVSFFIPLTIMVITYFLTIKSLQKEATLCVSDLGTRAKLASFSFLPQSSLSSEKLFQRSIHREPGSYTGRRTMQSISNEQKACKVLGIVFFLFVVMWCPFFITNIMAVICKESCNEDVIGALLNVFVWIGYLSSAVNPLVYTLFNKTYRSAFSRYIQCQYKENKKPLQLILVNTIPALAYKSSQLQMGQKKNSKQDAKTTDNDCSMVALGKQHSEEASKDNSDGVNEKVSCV

| SMILES | Emax [1, 4] | EC50 [1, 5] | Emax [2, 6] | EC50 [2, 7] | Emax [3, 4] | EC50 [3, 8] | EC50 [1] | EC50 [2] | EC50 [3] |
| --- | --- | --- | --- | --- | --- | --- | --- | --- | --- |
| COc1c(C)ccc2[nH]cc(CCN(C)C)c12 [Example P-9, 2-(4-methoxy-5-methyl-1H-indol-3-yl)-N,N-dimethylethan-1-amine] | 80.7% | 6.23 nM | 17.3% | > 10000 nM | 65% | 24.6 nM | – | – | – |
| COc1cc2c(CCN(C(C)C)C(C)C)c[nH]c2cc1C [Example P-49, N-isopropyl-N-(2-(5-methoxy-6-methyl-1H-indol-3-yl)ethyl)propan-2-amine] | 87% | – | 74.8% | – | 83.5% | – | – | – | – |
| CCN(C)CCc1c[nH]c2cc(F)cc(F)c12 [Example P-148, 2-(4,6-difluoro-1H-indol-3-yl)-N-ethyl-N-methylethan-1-amine] | 35.6% | – | 35.6% | ≥ 10000 nM | 78.9% | 51.4 nM | – | – | – |
| CN(C)CCc1c[nH]c2cc(F)cc(F)c12 [Example P-147, 2-(4,6-difluoro-1H-indol-3-yl)-N,N-dimethylethan-1-amine] | 15.3% | – | 15.3% | ≥ 10000 nM | 91.6% | 29.2 nM | – | – | – |
| COc1ccc(F)c2[nH]cc(CCN(C)C(C)C)c12 [Example P-103, N-(2-(7-fluoro-4-methoxy-1H-indol-3-yl)ethyl)-N-methylpropan-2-amine] | 7.02% | > 10000 nM | 3.67% | > 10000 nM | 61.8% | 34.6 nM | – | – | – |
| CCN(CC)CCc1c[nH]c2ccc3ocnc3c12 [Example P-129, N,N-diethyl-2-(6H-oxazolo[4,5-e]indol-8-yl)ethan-1-amine] | 93.1% | – | 41.1% | – | 64% | – | 72.7 nM | 14.9 nM | 14.4 nM |
| Cc1ccc2[nH]cc(CCN(C)C)c2c1O [Example P-10, 3-(2-(dimethylamino)ethyl)-5-methyl-1H-indol-4-ol] | 71.2% | 72.8 nM | -0.21% | > 10000 nM | 63.1% | 55.1 nM | – | – | – |
| CN(C)CCc1c[nH]c2c(F)c(F)ccc12 [Example P-159, 2-(6,7-difluoro-1H-indol-3-yl)-N,N-dimethylethan-1-amine] | 99.3% | 36.5 nM | 3.79% | > 10000 nM | 62% | 28.6 nM | – | – | – |
| CN(C)CCc1c[nH]c2cc3ccoc3cc12 [Example P-2, 2-(5H-Furo[2,3-f]indol-7-yl)-N,N-dimethylethan-1-amine] | 80.6% | 56.8 nM | -1.07% | > 10000 nM | 46.5% | 207 nM | – | – | – |
| CCN(C)CCc1c[nH]c2c(C)ccc(O)c12 [Example P-85, 3-(2-(ethyl(methyl)amino)ethyl)-7-methyl-1H-indol-4-ol] | 26.9% | – | 0.13% | – | 52% | – | – | – | – |
| CN(C)CCc1c[nH]c2cc3c(cc12)OCC3 [Example P-1, 2-(3,5-dihydro-2H-furo[2,3-f]indol-7-yl)-N,N-dimethylethan-1-amine] | 82.3% | 134 nM | 2.92% | > 10000 nM | 63.9% | 139 nM | – | – | – |
| COc1cc(F)cc2[nH]cc(CCN(C)C)c12 [Example P-14, 2-(6-fluoro-4-methoxy-1H-indol-3-yl)-N,N-dimethylethan-1-amine] | 75.7% | 2.6 nM | 0.17% | > 10000 nM | 87.2% | 12.9 nM | – | – | – |
| CCN(C)CCc1c[nH]c2c(F)ccc(OC)c12 [Example P-102, N-ethyl-2-(7-fluoro-4-methoxy-1H-indol-3-yl)-N-methylethan-1-amine] | 47.5% | 155 nM | 3.44% | > 10000 nM | 60.8% | 15 nM | – | – | – |
| COc1cc(C)c2[nH]cc(CCN(C)C)c2c1 [Example P-50, 2-(5-methoxy-7-methyl-1H-indol-3-yl)-N,N-dimethylethan-1-amine] | 56.4% | 538 nM | 0.5% | > 10000 nM | 66.2% | 64 nM | – | – | – |
| Cc1cc(O)c2c(CCN(C)C)c[nH]c2c1 [Example P-12, 3-(2-(dimethylamino)ethyl)-6-methyl-1H-indol-4-ol] | 69.3% | 144 nM | 1.23% | > 10000 nM | 67.8% | 80.4 nM | – | – | – |
| CCN(C)CCc1c[nH]c2cc(F)c(F)cc12 [Example P-154, 2-(5,6-difluoro-1H-indol-3-yl)-N-ethyl-N-methylethan-1-amine] | 102% | 24.9 nM | 17.6% | ≥ 10000 nM | 92.4% | 14.8 nM | – | – | – |
| CN(C)CCc1c[nH]c2ccc3c(c12)OCC3 [Example P-3, 2-(3,6-dihydro-2H-furo[2,3-e]indol-8-yl)-N,N-dimethylethan-1-amine] | 76.4% | 16.2 nM | 13.8% | > 10000 nM | 81% | 9.73 nM | – | – | – |
| CCN(C)CCc1c[nH]c2ccc(C)c(O)c12 [Example P-64, 3-(2-(ethyl(methyl)amino)ethyl)-5-methyl-1H-indol-4-ol] | 61% | 141 nM | 2.42% | ≥ 10000 nM | 79% | 62.2 nM | – | – | – |
| CN(C)CCc1c[nH]c2ccc(F)c(F)c12 [Example P-142, 2-(4,5-difluoro-1H-indol-3-yl)-N,N-dimethylethan-1-amine] | 118% | – | 2.92% | – | 70% | – | – | – | – |
| CCN(CCc1c[nH]c2ccc(C)c(OC)c12)C(C)C [Example P-62, N-ethyl-N-(2-(4-methoxy-5-methyl-1H-indol-3-yl)ethyl)propan-2-amine] | 65.9% | 1290 nM | 61.5% | 5320 nM | 41.9% | 319 nM | – | – | – |
| COc1c(C)ccc2[nH]cc(CCN(C)C(C)C)c12 [Example P-60, N-(2-(4-methoxy-5-methyl-1H-indol-3-yl)ethyl)-N-methylpropan-2-amine] | 72.2% | 198 nM | 71% | 768 nM | 66.3% | 77.6 nM | – | – | – |
| CCN(C)CCc1c[nH]c2ccc3oc(C)nc3c12 [Example P-132, N-ethyl-N-methyl-2-(2-methyl-6H-oxazolo[4,5-e]indol-8-yl)ethan-1-amine] | 85.7% | – | 11.4% | – | 69.1% | – | 177 nM | > 10000 nM | 20.6 nM |
